Among the data in ChEMBL document CHEMBL1143885, “Aryl-indolyl maleimides as inhibitors of CaMKIIdelta. Part 1: SAR of the aryl region” (Bioorg Med Chem Lett, 2008) are IC50 values, retold here.

The target of the assay is Calcium/calmodulin-dependent protein kinase type II subunit delta (Homo sapiens, UniProt Q13557). Briefly: Inhibition of CaMK2delta.
Sequence of Calcium/calmodulin-dependent protein kinase type II subunit delta (Q13557 whole entry): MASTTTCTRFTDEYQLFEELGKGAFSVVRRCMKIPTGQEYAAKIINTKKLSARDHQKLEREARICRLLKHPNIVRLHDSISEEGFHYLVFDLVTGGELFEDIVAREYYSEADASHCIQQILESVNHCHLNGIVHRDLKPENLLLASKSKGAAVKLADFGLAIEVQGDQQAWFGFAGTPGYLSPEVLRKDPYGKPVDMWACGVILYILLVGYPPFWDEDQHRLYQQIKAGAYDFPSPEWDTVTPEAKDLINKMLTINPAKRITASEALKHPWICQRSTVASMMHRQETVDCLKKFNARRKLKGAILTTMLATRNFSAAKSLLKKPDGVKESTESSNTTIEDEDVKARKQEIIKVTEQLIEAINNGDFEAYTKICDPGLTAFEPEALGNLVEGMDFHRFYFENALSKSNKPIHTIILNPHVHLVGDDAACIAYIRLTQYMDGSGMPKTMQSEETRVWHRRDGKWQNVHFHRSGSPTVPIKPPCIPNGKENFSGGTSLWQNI
Broadly, the IC50 is the point on the concentration scale where inhibition reaches its midpoint. Turning to `Cc1[nH]c2ccccc2c1C1=C(c2cn(CCCNC(=O)OC(C)(C)C)c3ccccc23)C(=O)NC1=O`, the IC50 worked out at 7610 nM.
Turning to `NCCCn1cc(C2=C(c3cccc(-c4ccccc4)c3)C(=O)NC2=O)c2ccccc21`, the half-inhibitory concentration (IC50) was determined as 1320 nM.
As for `CC(C)(C)OC(=O)NCCCn1cc(C2=C(c3cccs3)C(=O)NC2=O)c2ccccc21`, the figure is more than 20000 nM; as for `NCCCn1cc(C2=C(c3ccnc4ccccc34)C(=O)NC2=O)c2ccccc21`, 630 nM; as for `CN1C(=O)C(c2c[nH]c3ccc(Br)cc23)=C(c2cn(CCCN)c3ccccc23)C1=O`, more than 20000 nM.
As for `NCCCn1cc(C2=C(c3cccc4ccccc34)C(=O)NC2=O)c2ccccc21`, the figure is 290 nM; as for `NCCCn1cc(C2=C(c3cccc(Oc4ccccc4)c3)C(=O)NC2=O)c2ccccc21`, 1680 nM; as for `NCCCn1cc(C2=C(c3cccnc3)C(=O)NC2=O)c2ccccc21`, 540 nM.
As for `NCCCn1cc(C2=C(c3ccncc3)C(=O)NC2=O)c2ccccc21`, the IC50 was 1600 nM.
For `CN1C(=O)C(c2ccccc2)=C(c2cn(CCCN)c3ccccc23)C1=O`, the half-maximal inhibitory concentration (IC50) turned out to be 15000 nM.
Consider `NCCCn1cc(C2=C(c3ccc4ccccc4n3)C(=O)NC2=O)c2ccccc21`, for which the IC50 is more than 20000 nM.
In the case of `CN1C(=O)C(c2csc3ccccc23)=C(c2cn(CCCN)c3ccccc23)C1=O`, the IC50 stood at 2320 nM.
Consider `NCCCn1cc(C2=C(c3ccc4ccccc4c3)C(=O)NC2=O)c2ccccc21`, for which the half-maximal inhibitory concentration (IC50) worked out at 500 nM.
Consider `NCCCn1cc(C2=C(c3ccccn3)C(=O)NC2=O)c2ccccc21`, for which the IC50 was 1580 nM.
Consider `CC(C)(C)OC(=O)NCCCn1cc(C2=C(c3csc4ccccc34)C(=O)NC2=O)c2ccccc21`, for which the IC50 was more than 20000 nM.
As for `NCCCn1cc(C2=C(c3cccs3)C(=O)NC2=O)c2ccccc21`, the figure is 1190 nM; as for `NCCCn1cc(C2=C(c3ccco3)C(=O)NC2=O)c2ccccc21`, 1490 nM.
Regarding `Cc1cccc(C2=C(c3cn(CCCN)c4ccccc34)C(=O)NC2=O)c1`, the IC50 is 280 nM.
